Test system: 616215-338-R-J1-PDC spheroids with HUVEC/MSC, viability
Experiment: Anticancer human tumor 616215-338-R-J1-PDC patient-derived colon adenocarcinoma cell line growth inhibition [PI3K]
Details: for IC50: curve of first compound; for viability, T/C: stronger effect = lower value
In short: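 Stroma-containing spheroids: tumor line, pooled-donor HUVEC, hMSC. Treatments: targeted agents with PI3K inhibitors. Dosing: clinically relevant, half-log spacing, 10 microM ceiling without known Cmax. Read-out: cell viability.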

[1] = second compound 0.0316 µM, first compound 0.0316 µM
[2] = second compound 0.0316 µM, first compound 0.1 µM
[3] = second compound 0.0316 µM, first compound 0.316 µM
[4] = second compound 0.0316 µM, first compound 1 µM
[5] = second compound 0.0316 µM, first compound 3.16 µM
[6] = second compound 0.0316 µM, first compound 10 µM
[7] = second compound 0.1 µM, first compound 0.0316 µM
[8] = second compound 0.1 µM, first compound 0.1 µM
[9] = second compound 0.1 µM, first compound 0.316 µM
[10] = second compound 0.1 µM, first compound 1 µM
[11] = second compound 0.1 µM, first compound 3.16 µM
[12] = second compound 0.1 µM, first compound 10 µM
[13] = second compound 0.316 µM, first compound 0.0316 µM
[14] = second compound 0.316 µM, first compound 0.1 µM
[15] = second compound 0.316 µM, first compound 0.316 µM
[16] = second compound 0.316 µM, first compound 1 µM
[17] = second compound 0.316 µM, first compound 3.16 µM
[18] = second compound 0.316 µM, first compound 10 µM
[19] = second compound 1 µM, first compound 0.0316 µM
[20] = second compound 1 µM, first compound 0.1 µM
[21] = second compound 1 µM, first compound 0.316 µM
[22] = second compound 1 µM, first compound 1 µM
[23] = second compound 1 µM, first compound 3.16 µM
[24] = second compound 1 µM, first compound 10 µM
[25] = second compound 3.16 µM, first compound 0.0316 µM
[26] = second compound 3.16 µM, first compound 0.1 µM
[27] = second compound 3.16 µM, first compound 0.316 µM
[28] = second compound 3.16 µM, first compound 1 µM
[29] = second compound 3.16 µM, first compound 3.16 µM
[30] = second compound 3.16 µM, first compound 10 µM
[31] = second compound 10 µM, first compound 0.0316 µM
[32] = second compound 10 µM, first compound 0.1 µM
[33] = second compound 10 µM, first compound 0.316 µM
[34] = second compound 10 µM, first compound 1 µM
[35] = second compound 10 µM, first compound 3.16 µM
[36] = second compound 10 µM, first compound 10 µM
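Also: spheroids exposed to agents for seven days before the viability read.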

C#Cc1c(F)ccc2cc(O)cc(-c3ncc4c(N5CC6CCC(C5)N6)nc(OCC56CCCN5CC(F)C6)nc4c3F)c12 (centres undefined) + Cc1nc(NC(=O)N2CCCC2C(N)=O)sc1-c1ccnc(C(C)(C)C(F)(F)F)c1
IC50 (second compound 0.0316 µM): > 10 µM
IC50 (second compound 0.1 µM): > 10 µM
IC50 (second compound 0.316 µM): > 10 µM
IC50 (second compound 1 µM): > 10 µM
IC50 (second compound 3.16 µM): > 10 µM
IC50 (second compound 10 µM): 9.14 µM
viability, T/C [1]: 108%
viability, T/C [2]: 106%
viability, T/C [3]: 102%
viability, T/C [4]: 93.3%
viability, T/C [5]: 82%
viability, T/C [6]: 67.6%
viability, T/C [7]: 97.2%
viability, T/C [8]: 104%
viability, T/C [9]: 100%
viability, T/C [10]: 104%
viability, T/C [11]: 96.1%
viability, T/C [12]: 54.5%
viability, T/C [13]: 95.3%
viability, T/C [14]: 99.2%
viability, T/C [15]: 96.4%
viability, T/C [16]: 84.8%
viability, T/C [17]: 86.3%
viability, T/C [18]: 54.9%
viability, T/C [19]: 110%
viability, T/C [20]: 101%
viability, T/C [21]: 91.2%
viability, T/C [22]: 89.9%
viability, T/C [23]: 74.6%
viability, T/C [24]: 63.6%
viability, T/C [25]: 112%
viability, T/C [26]: 104%
viability, T/C [27]: 93.8%
viability, T/C [28]: 85.1%
viability, T/C [29]: 78.1%
viability, T/C [30]: 53%
viability, T/C [31]: 88.3%
viability, T/C [32]: 93.2%
viability, T/C [33]: 93.5%
viability, T/C [34]: 88.9%
viability, T/C [35]: 82.5%
viability, T/C [36]: 47.1%

CC1(C)CCC(Nc2ncc(C(F)(F)F)c(-c3c[nH]c4c(P(C)(C)=O)c(C#N)ccc34)n2)CN1 (centres undefined) + Cc1nc(NC(=O)N2CCCC2C(N)=O)sc1-c1ccnc(C(C)(C)C(F)(F)F)c1
IC50 (second compound 0.0316 µM): 3.65 µM
IC50 (second compound 0.1 µM): 3.77 µM
IC50 (second compound 0.316 µM): 3.66 µM
IC50 (second compound 1 µM): 3.35 µM
IC50 (second compound 3.16 µM): 1.1 µM
IC50 (second compound 10 µM): 0.185 µM
viability, T/C [1]: 50.7%
viability, T/C [2]: 54.1%
viability, T/C [3]: 54.7%
viability, T/C [4]: 56.1%
viability, T/C [5]: 69.7%
viability, T/C [6]: 0.38%
viability, T/C [7]: 64.5%
viability, T/C [8]: 52%
viability, T/C [9]: 59.5%
viability, T/C [10]: 60%
viability, T/C [11]: 59.7%
viability, T/C [12]: 0.38%
viability, T/C [13]: 51.8%
viability, T/C [14]: 57.8%
viability, T/C [15]: 59.7%
viability, T/C [16]: 52.8%
viability, T/C [17]: 63.6%
viability, T/C [18]: 0.32%
viability, T/C [19]: 61.9%
viability, T/C [20]: 45.8%
viability, T/C [21]: 53.7%
viability, T/C [22]: 55.8%
viability, T/C [23]: 52.5%
viability, T/C [24]: 0.18%
viability, T/C [25]: 53.5%
viability, T/C [26]: 47.5%
viability, T/C [27]: 48.3%
viability, T/C [28]: 57.6%
viability, T/C [29]: 31.2%
viability, T/C [30]: 0.39%
viability, T/C [31]: 61.6%
viability, T/C [32]: 51.4%
viability, T/C [33]: 46.2%
viability, T/C [34]: 37.1%
viability, T/C [35]: 20.2%
viability, T/C [36]: 0.89%
